Molecules are shown by their SMILES.

The record followed here is patent US10851067B2, “Kv7 channel activators compositions and methods of use” (Knopp Biosciences LLC, priority 2018, dated 2020).

In the assay the target is Kv7.2/7.3 (Homo sapiens, UniProt O43525+O43526). Description: Kv7.2/7.3 Activation Assay, QPatch single concentration screen. In kind it is cell-based. Set-up: host or cells: HEK cells, tetracycline-inducible expression; key: 1.2-2.9 (+); 3-3.9 (++); >4 (+++) fold increase over baseline; O represents open channel at holding potential. Conditions: Kv7.2/Kv7.3 co-expressing HEK cells, compound concentration 3 μM, steady-state current at end of 2 s pulse to −30 mV. The essentials:
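Tetracycline-induced HEK cells expressing human Kv7.2/7.3, recorded 24 h post-induction by automated planar patch clamp. From −80 mV, 2 s steps to −30 mV then 100 ms to −120 mV; compound tested at 3 μM (0.1% DMSO). Steady-state current at end of −30 mV step gives fold increase over baseline.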
(In general: Patch clamp records ionic current or voltage across a cell membrane.)

Take `CC(C)(O)c1ccc2nc(NC(=O)CC(C)(C)C3CC3)n(C34CC(C3)C4)c2c1` [Example 472, N-(1-(bicyclo[1.1.1]pentan-1-yl)-6-(2-hydroxypropan-2-yl)-1H-benzo[d]imidazol-2-yl)-3-cyclopropyl-3-methylbutanamide]: the “Kv7.2/7.3 Activity: increase over baseline in current” value (“Kv7.2/7.3 Activity: increase” for short) is recorded as “+++ (>4 (+++) fold increase over baseline)”.

As to `[2H]C([2H])([2H])C(CC(=O)Nc1nc2ccc(C(C)(C)O)cc2n1C1CCC1)(C([2H])([2H])[2H])C([2H])([2H])[2H]` [Example 448, N-(1-cyclobutyl-6-(2-hydroxypropan-2-yl)-1H-benzo[d]imidazol-2-yl)-3,3-bis(methyl-d3)butanamide], the “Kv7.2/7.3 Activity: increase” value is given as “++ (3-3.9 (++))”. On to `CC(C)(O)c1cc(F)c2nc(NC(=O)CC3CC(F)(F)C3(F)F)n(C3CCC3)c2c1` (centres unmarked) [Example 405, N-(1-cyclobutyl-4-fluoro-6-(2-hydroxypropan-2-yl)-1H-benzo[d]imidazol-2-yl)-2-(2,2,3,3-tetrafluorocyclobutyl)acetamide], for which the “Kv7.2/7.3 Activity: increase” value was “++ (3-3.9 (++))”. Next, `[2H]C([2H])([2H])C(CC(=O)Nc1nc2c(F)cc(C(C)(C)O)cc2n1C1CCC1)(C([2H])([2H])[2H])C([2H])([2H])[2H]` [Example 342, N-(1-cyclobutyl-4-fluoro-6-(2-hydroxypropan-2-yl)-1H-benzo[d]imidazol-2-yl)-3,3-bis(methyl-d3)butanamide]: “+++ (>4 (+++) fold increase over baseline)”; `C[C@@H](CC(=O)Nc1nc2c(F)cc(C(C)(C)O)cc2n1C1CCC1)c1ccccc1` [Example 410, (S)-N-(1-cyclobutyl-4-fluoro-6-(2-hydroxypropan-2-yl)-1H-benzo[d]imidazol-2-yl)-3-phenylbutanamide]: “O”; `CC(O)(CC(=O)Nc1nc2ccc(C#N)cc2n1C1CCC1)c1ccccc1F` (single isomer, unassigned) [Example 452, N-(6-cyano-1-cyclobutyl-1H-benzo[d]imidazol-2-yl)-3-(2-fluorophenyl)-3-hydroxybutanamide]: “O”. `CC(O)(CC(=O)Nc1nc2ccc(OC(F)F)cc2n1C1CCC1)c1ccccc1` (single isomer, unassigned) [Example 422, N-(1-cyclobutyl-6-(difluoromethoxy)-1H-benzo[d]imidazol-2-yl)-3-hydroxy-3-phenylbutanamide]: the “Kv7.2/7.3 Activity: increase” value was “+ (1.2-2.9 (+))”. For the compound `COc1cccc2nc(NC(=O)CC(C)(C)C3CC3)n(C3CCC3)c12` [Example 458, N-(1-cyclobutyl-7-methoxy-1H-benzo[d]imidazol-2-yl)-3-cyclopropyl-3-methylbutanamide], the “Kv7.2/7.3 Activity: increase” value is on record as “+++ (>4 (+++) fold increase over baseline)”. As for `CC(C)(C)CC(=O)Nc1nc2ccc(OC(F)F)cc2n1C(C)(C)C` [Example 393, N-(1-(tert-butyl)-6-(difluoromethoxy)-1H-benzo[d]imidazol-2-yl)-3,3-dimethylbutanamide], the “Kv7.2/7.3 Activity: increase” value is “+++ (>4 (+++) fold increase over baseline)”. The result for `COc1cc(F)c2nc(NC(=O)CC(C)(C)C)n(C3CCC3)c2c1` [Example 469, N-(1-cyclobutyl-4-fluoro-6-methoxy-1H-benzo[d]imidazol-2-yl)-3,3-dimethylbutanamide] reads “+++ (>4 (+++) fold increase over baseline)”; that for `COc1c(Cl)c(Cl)c(Cl)c2nc(NC(=O)CC(C)(C)C)n(C3CCC3)c12` [Example 414, 3,3-dimethyl-N-(4,5,6-trichloro-1-cyclobutyl-7-methoxy-1H-benzo[d]imidazol-2-yl)butanamide], “++ (3-3.9 (++))”; that for `CC1(Cn2c(NC(=O)CC(C)(O)c3ccccc3)nc3ccc(C#N)cc32)CC1` (single isomer, unassigned) [Example 471, N-(6-cyano-1-((1-methylcyclopropyl)methyl)-1H-benzo[d]imidazol-2-yl)-3-hydroxy-3-phenylbutanamide], “+ (1.2-2.9 (+))”. `CC(O)(CC(=O)Nc1nc2c(F)cc(C#N)cc2n1C(C)(C)C)c1ccccc1F` (single isomer, unassigned) [Example 348, N-(1-(tert-butyl)-6-cyano-4-fluoro-1H-benzo[d]imidazol-2-yl)-3-(2-fluorophenyl)-3-hydroxybutanamide]: the “Kv7.2/7.3 Activity: increase” value was “O”. The result for `CC1(CC(=O)Nc2nc3c(F)cc(C(C)(C)O)cc3n2C2CCC2)CC1` [Example 403, N-(1-cyclobutyl-4-fluoro-6-(2-hydroxypropan-2-yl)-1H-benzo[d]imidazol-2-yl)-2-(1-methylcyclopropyl)acetamide] reads “++ (3-3.9 (++))”; that for `CC(C)(C)Cn1c(NC(=O)CC(C)(O)c2ccccc2)nc2ccc(C#N)cc21` (single isomer, unassigned) [Example 341, N-(6-cyano-1-neopentyl-1H-benzo[d]imidazol-2-yl)-3-hydroxy-3-phenylbutanamide], “+ (1.2-2.9 (+))”; that for `CC(O)(CC(=O)Nc1nc2ccc(OC(F)F)cc2n1C1(C)CCC1)c1ccccc1` (single isomer, unassigned) [Example 463, N-(6-(difluoromethoxy)-1-(1 - methylcyclobutyl)-1H-benzo[d]imidazol-2-yl)-3-hydroxy-3-phenylbutanamide], “+ (1.2-2.9 (+))”. For the compound `C[C@H](C(=O)Nc1nc2ccc(C(C)(C)O)cc2n1C12CC(C1)C2)C(C)(C)C` [Example 455, (S)-N-(1-(bicyclo[1.1.1]pentan-1-yl)-6-(2-hydroxypropan-2-yl)-1H-benzo[d]imidazol-2-yl)-2,3,3-trimethylbutanamide], the “Kv7.2/7.3 Activity: increase” value is “++ (3-3.9 (++))”. For the compound `CC(C)(CC(=O)Nc1nc2cc(F)cc(F)c2n1C1CCC1)C(F)(F)F` [Example 453, N-(1-cyclobutyl-5,7-difluoro-1H-benzo[d]imidazol-2-yl)-4,4,4-trifluoro-3,3-dimethylbutanamide], the “Kv7.2/7.3 Activity: increase” value is “++ (3-3.9 (++))”. On to `CC1(n2c(NC(=O)CC(C)(C)C(F)(F)F)nc3cc(F)cc(C#N)c32)CCC1` [Example 340, N-(7-cyano-5-fluoro-1-(1-methylcyclobutyl)-1H-benzo[d]imidazol-2-yl)-4,4,4-trifluoro-3,3-dimethylbutanamide], for which the “Kv7.2/7.3 Activity: increase” value is “+ (1.2-2.9 (+))”. Take `CC(C)(C)CC(=O)Nc1nc2ccc(C#N)cc2n1C1(C)CCC1` [Example 337, N-(6-cyano-1-(1-methylcyclobutyl)-1H-benzo[d]imidazol-2-yl)-3,3-dimethylbutanamide]: the “Kv7.2/7.3 Activity: increase” value is recorded as “++ (3-3.9 (++))”. The result for `CC(C)(C)CC(=O)Nc1nc2c(F)cc(OC(F)F)cc2n1C1CCC1` [Example 331, N-(1-cyclobutyl-6-(difluoromethoxy)-4-fluoro-1H-benzo[d]imidazol-2-yl)-3,3-dimethylbutanamide] reads “+++ (>4 (+++) fold increase over baseline)”; that for `CC(C)(CC(=O)Nc1nc2c(F)cc(C#N)cc2n1C12CC(C1)C2)C(F)(F)F` [Example 431, N-(1-(bicyclo[1.1.1]pentan-1-yl)-6-cyano-4-fluoro-1H-benzo[d]imidazol-2-yl)-4,4,4-trifluoro-3,3-dimethylbutanamide], “++ (3-3.9 (++))”; that for `C[C@H](CC(=O)Nc1nc2c(F)cc(C(C)(C)O)cc2n1C1CCC1)c1ccccc1` [Example 412, (R)-N-(1-cyclobutyl-4-fluoro-6-(2-hydroxypropan-2-yl)-1H-benzo[d]imidazol-2-yl)-3-phenylbutanamide], “++ (3-3.9 (++))”. Regarding `CC(C)(C)n1c(NC(=O)CC(C)(C)C(F)(F)F)nc2ccc(C#N)c(F)c21` [Example 444, N-(1-(tert-butyl)-6-cyano-7-fluoro-1H-benzo[d]imidazol-2-yl)-4,4,4-trifluoro-3,3-dimethylbutanamide], the “Kv7.2/7.3 Activity: increase” value is on record as “++ (3-3.9 (++))”.

For the compound `CC(O)(CC(=O)Nc1nc2cc(F)c(C#N)cc2n1C1CCC1)c1ccccc1` (single isomer, unassigned) [Example 350, N-(6-cyano-1-cyclobutyl-5-fluoro-1H-benzo[d]imidazol-2-yl)-3-hydroxy-3-phenylbutanamide], the “Kv7.2/7.3 Activity: increase” value is recorded as “+ (1.2-2.9 (+))”. Next, `CC(CF)(CF)CC(=O)Nc1nc2ccc(C(C)(C)O)cc2n1C1CCC1` [Example 370, N-(1-cyclobutyl-6-(2-hydroxypropan-2-yl)-1H-benzo[d]imidazol-2-yl)-4-fluoro-3-(fluoromethyl)-3-methylbutanamide]: “++ (3-3.9 (++))”; `CC(C)(C)CC(=O)Nc1nc2ccc(OCC(F)(F)F)c(F)c2n1C1CCC1` [Example 334, N-(1-cyclobutyl-7-fluoro-6-(2,2,2-trifluoroethoxy)-1H-benzo[d]imidazol-2-yl)-3,3-dimethylbutanamide]: “++ (3-3.9 (++))”. Next, `CC(C)(O)CC(=O)Nc1nc2ccc(OC(F)F)c(F)c2n1C1(C)CCC1` [Example 351, N-(6-(difluoromethoxy)-7-fluoro-1-(1-methylcyclobutyl)-1H-benzo[d]imidazol-2-yl)-3-hydroxy-3-methylbutanamide]: “+ (1.2-2.9 (+))”; `COc1cc(F)c2nc(NC(=O)CC(C)(C)C)n(C3(C)CCC3)c2c1` [Example 355, N-(4-fluoro-6-methoxy-1-(1-methylcyclobutyl)-1H-benzo[d]imidazol-2-yl)-3,3-dimethylbutanamide]: “+++ (>4 (+++) fold increase over baseline)”.
